From US20220401514A1, “ANTIMICROBIAL, BACTERIOPHAGE-DERIVED POLYPEPTIDES AND THEIR USE AGAINST GRAM-NEGATIVE AND ACID-FAST BACTERIA” (CONTRAFECT CORPORATION, priority 2019, published 2022)
In brackets after ≈: the same amount, converted by molar mass. Like-named read-outs stand apart in the source and are kept apart here.

Key:
[1] = test system: Pseudomonas aeruginosa; assay: microbe, parasite or virus in culture; format: cell-based; details: for MIC50 / MIC100 / MIC Range: P. aeruginosa isolates (n per peptide in table)
[2] = test system: Enterobacter cloacae; assay: microbe, parasite or virus in culture; format: cell-based; details: for MIC50 / MIC100 / MIC Range: E. cloacae isolates (n per peptide in table)
How it was run: (§1)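 Medium: CAA with added human serum. Peptides tested for minimal inhibitory concentration against each strain.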

[3] = test system: Escherichia coli; assay: microbe, parasite or virus in culture; format: cell-based; details: for MIC50 / MIC100 / MIC Range: E. coli isolates (n per peptide in table)
How it was run: as §1

[4] = test system: M. smegmatis; assay: 45 hr MIC against M. smegmatis (NTM), Mueller Hinton broth; format: cell-based, Mycobacterium smegmatis
[5] = test system: M. fortuitum; assay: 45 hr MIC against M. fortuitum (NTM); format: cell-based, Mycobacterium fortuitum; details: M. fortuitum subsp. Fortuitum da Costa Cruz. ATCC 6841
[6] = test system: M. avium; assay: 45 hr MIC against M. avium (NTM); format: cell-based, Mycobacterium avium; details: M. avium Chester ATCC 700898
[7] = test system: P. aeruginosa strain CFS-1292; assay: MIC in presence of divalent cations (calcium chloride, magnesium sulfate); format: cell-based, Pseudomonas aeruginosa
Protocol: Next, Chp peptides were evaluated in the presence of different divalent cations. […]; (2) in the presence of 2 mM calcium chloride alone; (3) in the presence of 1 mM magnesium sulfate alone; and (4) in the presence of both 2 mM calcium chloride and 1 mM magnesium sulfate. […]

[8] = test system: Mycobacterium tuberculosis strains
Protocol: MIC values for various Chp peptides were determined using the CLSI method for broth microdilution in 96-well microtiter format.
Next, MIC values for various Chp peptides were determined using the CLSI method above for broth microdilution in 96-well microtiter format for two different Mycobacterium tuberculosis strains. The MIC was determined as explained above for the NTM strains.

[9] = test system: Klebsiella pneumoniae; assay: microbe, parasite or virus in culture; format: cell-based
[10] = test system: eight different strains of five species of Gram-negative bacteria; assay: MBEC in eight strains of five species of Gram-negative bacteria; format: cell-based; details: 24 h biofilm in LB, 16 h treatment
Protocol: Determination of Minimal Biofilm Eradicating Concentrations (MBEC). […] The OD600 of extracted crystal violet was determined. The MBEC value of each sample was determined as the minimum drug concentration required to remove >95% of biofilm biomass as assessed by crystal violet quantitation (in comparison to untreated controls).
MBEC values were likewise determined for Chp2, Chp2-M1, and Chp10-M1 in eight different strains of five species of Gram-negative bacteria. […] The films were then washed and stained with crystal violet to visualize the MBEC.

[11] = test system: P. aeruginosa strain CFS 1292; format: cell-based, Pseudomonas aeruginosa; details: serial passage
[12] = test system: Pseudomonas aeruginosa, Escherichia coli, Enterobacter cloacae, Klebsiella pneumoniae, and Acinetobacter baumannii; assay: MIC against a range of Gram-negative organisms (statements covering several species); format: cell-based; details: Tables 40-44 isolates
Protocol: Determination of Minimal Inhibitory Concentrations (MIC).
Additional MIC testing was performed for several peptides against the ESKAPE pathogens Escherichia coli, Enterobacter cloacae, Klebsiella pneumoniae, and Acinetobacter baumannii, in CAA supplemented with human serum (Table D).

[13] = test system: P. aeruginosa strain CFS-1292; assay: MIC in presence of mouse, rat, rabbit and human serum ([…] each); format: cell-based, Pseudomonas aeruginosa; details: P. aeruginosa CFS-1292
Protocol: The activity of several Chp peptides against P. aeruginosa strain CFS-1292 in animal serum was evaluated. […] Rat, mouse, and rabbit serum were all obtained from pooled gender samples.

[14] = P. aeruginosa 453 (Human clinical isolate, HSS), RSC 1292, CAA without human serum
[15] = P. aeruginosa (ATCC 14213, human hip wound), RSC 1111, CAA without human serum
[16] = P. aeruginosa (ATCC 15152, abscess in middle ear), RSC 1110, CAA without human serum
[17] = P. aeruginosa (ATCC 15692, infected wound), RSC 489, CAA without human serum
[18] = P. aeruginosa (ATCC 15692, infected wound), RSC 1115, CAA without human serum
[19] = P. aeruginosa (ATCC 17646, human liver abscess), RSC 1109, CAA without human serum
[20] = P. aeruginosa (ATCC 19142, tracheobronchial secretion), RSC 1108, CAA without human serum
[21] = P. aeruginosa (ATCC 25102, bacteriophage host), RSC 1114, CAA without human serum
[22] = P. aeruginosa (ATCC 27853, MIC control strain), RSC 815, CAA without human serum
[23] = P. aeruginosa (ATCC BAA-27, lab strain), RSC 1113, CAA without human serum
[24] = P. aeruginosa (PAO1, alternate source, HER1018), RSC 490, CAA without human serum
[25] = Enterobacter cloacae (ATCC 13047, MIC control strain), RSC 1240, CAA without human serum
[26] = Enterobacter cloacae ATCC 13047, CAA supplemented with human serum
[27] = E. coli (ATCC 25922, MIC control strain), RSC 813, CAA without human serum
[28] = E. coli (HM346, colon, Crohn's disease), RSC 1212, CAA without human serum
[29] = Escherichia coli ATCC 25922, CAA supplemented with human serum
[30] = Mycobacterium tuberculosis (Zopf) Lehmann and Neumann ATCC 25177
[31] = Mycobacterium tuberculosis (Zopf) Lehmann and Neumann ATCC 35817
[32] = Klebsiella pneumoniae (ATCC 10031, MIC control strain), RSC 814, CAA without human serum
[33] = Klebsiella pneumoniae (g2-3 HM35K), RSC 1138, CAA without human serum
[34] = Klebsiella sp. (HM-44; colon, Crohn's disease), RSC 1139, CAA without human serum
[35] = Klebsiella spp. (HM-223; gut of Crohn's disease patient), RSC 1131, CAA without human serum

“MVRRRRLRRRISRRIFRRTVARVGRRRRSFRGGIRF [Chp1]” was tested, and the MIC [1, 14] was 8 µg/mL, the MIC [1, 15] was 8 µg/mL and the MIC [1, 16] was 4 µg/mL. It also gave an MIC [1, 17] of 4 µg/mL, an MIC [1, 18] of 8 µg/mL and an MIC [1, 19] of 8 µg/mL. For the same compound, the MIC [1, 20] was 8 µg/mL, the MIC [1, 21] was 8 µg/mL and the MIC [1, 22] was 8 µg/mL. For the same compound, the MIC [1, 23] was 8 µg/mL, the MIC [1, 24] was 8 µg/mL and the MIC50 [1] was 2 µg/mL. The MIC100 [1] was 4 µg/mL, the “MIC Range” value [1] was 1 to 4 µg/mL and the MIC50 [2] was 2 µg/mL. The MIC100 [2] was 4 µg/mL, the “MIC Range” value [2] was 2 to 4 µg/mL and the MIC [2, 25] was 8 µg/mL. For the same compound, the MIC [2, 26] was 4 µg/mL, the MIC [3, 27] was 8 µg/mL and the MIC [3, 28] was 8 µg/mL. For the same compound, the MIC50 [3] was 2 µg/mL, the MIC100 [3] was 4 µg/mL and the “MIC Range” value [3] was 1 to 4 µg/mL. The MIC [3, 29] was 2 µg/mL, the “45 hr MIC” value ([4]; M. smegmatis MC^2 155, Run #1) was 8 µg/mL and the “45 hr MIC” value ([4]; M. smegmatis MC^2 155, Run #2) was 16 µg/mL. The “45 hr MIC” value [5] was 16 µg/mL, the “45 hr MIC” value [6] was 4 µg/mL and the MIC ([7]; CAA media + 1 mM MgSO4) was 1 µg/mL. The MIC ([7]; CAA media + 2 mM CaCl2) was 2 µg/mL, the MIC ([7]; CAA media + + 1 mM MgSO4) was 1 µg/mL and the MIC ([7]; CAA media alone) was 1 µg/mL. The MIC [8, 30] was 64 µg/mL, the MIC [8, 31] was 32 µg/mL and the MIC [9, 32] was 16 µg/mL. The MIC [9, 33] was 16 µg/mL, the MIC [9, 34] was 8 µg/mL and the MIC [9, 35] was 8 µg/mL.

`NC[C@H]1O[C@H](O[C@H]2[C@H](O)[C@@H](O[C@H]3O[C@H](CO)[C@@H](O)[C@H](N)[C@H]3O)[C@H](N)C[C@@H]2N)[C@H](N)C[C@@H]1O` [tobramycin, reference compound] was tested, and the MIC ([1]; Pseudomonas aeruginosa, ATCC27853, P. aeruginosa (ATCC 27853), control agents of Table 8, read-out: MIC (in brackets beside MBEC)) was < 0.5 µg/mL, the MIC ([2]; Enterobacter cloacae, CCUG63317, E. cloacae (CCUG 63317), control agents of Table 8, read-out: MIC (in brackets beside MBEC)) was < 0.5 µg/mL and the MIC ([3]; Escherichia coli, ATCC25922, E. coli (ATCC 25922), control agents of Table 8, read-out: MIC (in brackets beside MBEC)) was < 0.5 µg/mL. For the same compound, the MIC ([3]; Escherichia coli, ATCC35329, E. coli (ATCC 35329), control agents of Table 8, read-out: MIC (in brackets beside MBEC)) was < 0.5 µg/mL, the MIC ([3]; Escherichia coli, E. coli (EC2), control agents of Table 8, read-out: MIC (in brackets beside MBEC)) was < 0.5 µg/mL and the MBEC ([10]; A. baumanni (ATCC BAA-747)) was 0.03 µg/mL. For the same compound, the MBEC ([10]; E. cloacae (CCUG 63317)) was <0.03 µg/mL, the MBEC ([10]; E. coli (ATCC 25922)) was <0.03 µg/mL and the MBEC ([10]; E. coli (ATCC 35329)) was <0.03 µg/mL. The MBEC ([10]; E. coli (EC2)) was <0.03 µg/mL, the MBEC ([10]; K. pneumoniae (ATCC 700603)) was 1 µg/mL and the MBEC ([10]; K. pneumoniae (KP1)) was 1 µg/mL. The MBEC ([10]; P. aeruginosa (ATCC 27853)) was 0.03 µg/mL, the MIC ([4]; Mycolicibacterium smegmatis, MC^2155, 45 h, read-out: 45 hr MIC, M. smegmatis MC^2 155, Run #2) was 0.125 µg/mL (≈ 0.267 µM) and the MIC ([5]; Mycolicibacterium fortuitum, ATCC6841, 45 h, read-out: 45 hr MIC) was 4 µg/mL (≈ 8.56 µM). For the same compound, the MIC ([6]; Mycobacterium avium, ATCC700898, 45 h, read-out: 45 hr MIC) was 0.125 µg/mL (≈ 0.267 µM), the “change in MIC after 21 days” value [11] was “significant increases” and the MIC ([9]; Klebsiella pneumoniae, ATCC700603, K. pneumoniae (ATCC 700603), control agents of Table 8, read-out: MIC (in brackets beside MBEC)) was < 0.5 µg/mL. The MIC ([9]; Klebsiella pneumoniae, read-out: MIC (in brackets beside MBEC)) was < 0.5 µg/mL.

Work on “MARRRYRLPRRRSRRLFSRTALRMHPRNRLRRIMRGGIRF [Chp6]” yielded an MIC [1, 14] of 2 µg/mL, an MIC [1, 15] of 4 µg/mL and an MIC [1, 16] of 2 µg/mL. For the same compound, the MIC [1, 17] was 2 µg/mL, the MIC [1, 18] was 4 µg/mL and the MIC [1, 19] was 4 µg/mL. The MIC [1, 20] was 2 µg/mL, the MIC [1, 21] was 2 µg/mL and the MIC [1, 22] was 1 µg/mL. It also gave an MIC [1, 23] of 2 µg/mL, an MIC [1, 24] of 1 µg/mL and an MIC50 [1] of 1 µg/mL. The MIC100 [1] was 1 µg/mL, the “MIC Range” value [1] was 0.5 to 1 µg/mL and the MIC50 [2] was 0.5 µg/mL. For the same compound, the MIC100 [2] was 1 µg/mL, the “MIC Range” value [2] was 0.25 to 2 µg/mL and the MIC [2, 25] was 4 µg/mL. The MIC [2, 26] was 2 µg/mL, the MIC [3, 27] was 2 µg/mL and the MIC [3, 28] was 2 µg/mL. The MIC50 [3] was 0.5 µg/mL, the MIC100 [3] was 1 µg/mL and the “MIC Range” value [3] was 0.25 to 2 µg/mL. The MIC [3, 29] was 1 µg/mL, the “activity (good = MIC100 of ≤4) against all of P. aeruginosa, K. pneumoniae, A. baumannii, E. cloacae, and E. coli” value [12] was “good activity” and the “45 hr MIC” value ([4]; M. smegmatis MC^2 155, Run #1) was 4 µg/mL. For the same compound, the “45 hr MIC” value ([4]; M. smegmatis MC^2 155, Run #2) was 4 µg/mL, the “45 hr MIC” value [5] was 4 µg/mL and the “45 hr MIC” value [6] was 1 µg/mL. It also gave an MIC ([7]; CAA media + 1 mM MgSO4) of 1 µg/mL, an MIC ([7]; CAA media + 2 mM CaCl2) of 0.5 µg/mL and an MIC ([7]; CAA media + + 1 mM MgSO4) of 1 µg/mL. The MIC ([7]; CAA media alone) was 1 µg/mL, the “MIC BALB/C Mouse Serum” value ([13]; BALB/C mouse serum […]) was 32 µg/mL and the “MIC CAA” value ([13]; CAA) was 1 µg/mL. The “MIC New Zealand White Rabbit Serum” value ([13]; New Zealand White rabbit serum […]) was 4 µg/mL, the “MIC Sprague Dawley Rat Serum” value ([13]; Sprague Dawley rat serum […]) was 4 µg/mL and the “MIC Human Serum” value ([13]; human serum […]) was 1 µg/mL. The MIC [8, 30] was 32 µg/mL, the MIC [8, 31] was 4 µg/mL and the MIC [9, 32] was 4 µg/mL. It also gave an MIC [9, 33] of 4 µg/mL, an MIC [9, 34] of 1 µg/mL and an MIC [9, 35] of 4 µg/mL.
